Measured values published in patent US11807644B2 (PMV Pharmaceuticals, Inc., priority 2020, dated 2023).

Biological target: T1, recombinant His-tag Y220C p53 DBD protein (Homo sapiens, UniProt P04637, Y220C)
T1 construct: recombinant His-tag Y220C p53 DBD protein (amino acids #˜94-312)
Test: In vitro DNA binding activity assay (TR-FRET): binding of His-tag Y220C p53 DBD to biotin-labeled consensus DNA
Format: biochemical
Conditions: for Y220C SC150 (μM): SC150 = concentration to increase DNA binding by […], His-tag Y220C p53 DBD, biotin-labeled consensus DNA

Structure (SMILES)	Y220C SC150 (μM)	SC150 (μM) (concentration to increase DNA binding by […], incubated at either 27° C. or 29° C. for 60 min)
CN1CC[C@H](Nc2cccc3c2cc(-c2nnc(CNc4cccc(S(C)(=O)=O)c4)o2)n3CC(F)(F)F)[C@H](F)C1 (racemic) [Compound 122B, (+/−)-N-[(3R,4S)-3-fluoro-1-methylpiperidin-4-yl]-2-(5-{[(3-methanesulfonylphenyl)amino]methyl}-1,3,4-oxadiazol-2-yl)-1-(2,2,2-trifluoroethyl)-1H-indol-4-amine]	** (** = 0.1 μM ≤ SC150 < 0.5 μM)	–
CN1CCC(Nc2cccc3c2cc(-c2nnc(CNC(=O)C4CC4)s2)n3CC(F)(F)F)CC1 [Compound 35B, N-[(5-{4-[(1-methylpiperidin-4-yl)amino]-1-(2,2,2-trifluoroethyl)-1H-indol-2-yl}-1,3,4-thiadiazol-2-yl)methyl]cyclopropanecarboxamide]	* (* = 0 μM ≤ SC150 < 0.1 μM)	–
COCC(=O)NCc1nnc(-c2cc3c(NC4CCN(C)CC4)cccc3n2CC(F)(F)F)s1 [Compound 60B, 2-methoxy-N-[(5-{4-[(1-methylpiperidin-4-yl)amino]-1-(2,2,2-trifluoroethyl)-1H-indol-2-yl}-1,3,4-thiadiazol-2-yl)methyl]acetamide]	** (** = 0.1 μM ≤ SC150 < 0.5 μM)	–
CN1CC[C@@H](Nc2cccc3c2cc(-c2noc(CNC(=O)c4ccn(C5CCC(F)C5)c4)n2)n3CC(F)(F)F)[C@@H](F)C1 (stereo partly drawn) [Compound 345B, N-{[3-(4-{[(3S,4R)-3-fluoro-1-methylpiperidin-4-yl]amino}-1-(2,2,2-trifluoroethyl)-1H-indol-2-yl)-1,2,4-oxadiazol-5-yl]methyl}-1-(3-fluorocyclopentyl)-1H-pyrrole-3-carboxamide]	* (* = 0 μM ≤ SC150 < 0.1 μM)	–
CCCC(=O)NCc1nnc(-c2cc3c(NC4CCN(C)CC4)cccc3n2CC(F)(F)F)s1 [Compound 65B, N-[(5-{4-[(1-methylpiperidin-4-yl)amino]-1-(2,2,2-trifluoroethyl)-1H-indol-2-yl}-1,3,4-thiadiazol-2-yl)methyl]butanamide]	** (** = 0.1 μM ≤ SC150 < 0.5 μM)	–
CN1CC[C@@H](Nc2cccc3c2cc(-c2noc(CNC(=O)c4cnn(C5CCC(F)C5)c4)n2)n3CC(F)(F)F)[C@@H](F)C1 (stereo partly drawn) [Compound 339B, N-{[3-(4-{[(3S,4R)-3-fluoro-1-methylpiperidin-4-yl]amino}-1-(2,2,2-trifluoroethyl)-1H-indol-2-yl)-1,2,4-oxadiazol-5-yl]methyl}-1-(3-fluorocyclopentyl)-1H-pyrazole-4-carboxamide]	* (* = 0 μM ≤ SC150 < 0.1 μM)	–
CN1CCC(Nc2cccc3c2cc(-c2nc(CNC(=O)C4CC4)no2)n3CC(F)(F)F)CC1 [Compound 137B, N-[(5-{4-[(1-methylpiperidin-4-yl)amino]-1-(2,2,2-trifluoroethyl)-1H-indol-2-yl}-1,2,4-oxadiazol-3-yl)methyl]cyclopropanecarboxamide]	** (** = 0.1 μM ≤ SC150 < 0.5 μM)	–
CN1CCC(Nc2cccc3c2cc(-c2nnc(CNC(=O)[C@@H]4C[C@H]4C(=O)O)s2)n3CC(F)(F)F)CC1 (racemic) [Compound 76B, (+/−)-(1R,2R)-2-{[(5-{4-[(1-methylpiperidin-4-yl)amino]-1-(2,2,2-trifluoroethyl)-1H-indol-2-yl}-1,3,4-thiadiazol-2-yl)methyl]carbamoyl}cyclopropane-1-carboxylic acid]	* (* = 0 μM ≤ SC150 < 0.1 μM)	–
CN1CC[C@@H](Nc2cccc3c2cc(-c2ccc(CNC(=O)c4cnn(C(C)(C)C)c4)cn2)n3CC(F)(F)F)[C@@H](F)C1 [Compound 285B, 1-tert-butyl-N-{[6-(4-{[(3S,4R)-3-fluoro-1-methylpiperidin-4-yl]amino}-1-(2,2,2-trifluoroethyl)-1H-indol-2-yl)pyridin-3-yl]methyl}-1H-pyrazole-4-carboxamide]	** (** = 0.1 μM ≤ SC150 < 0.5 μM)	–
CC1(n2ccc(C(=O)NCc3nc(-c4cc5c(N[C@@H]6CCNC[C@@H]6F)cccc5n4CC(F)(F)F)no3)c2)CCOCC1 [Compound 477B, N-{[3-(4-{[(3S,4R)-3-fluoropiperidin-4-yl]amino}-1-(2,2,2-trifluoroethyl)-1H-indol-2-yl)-1,2,4-oxadiazol-5-yl]methyl}-1-(4-methyloxan-4-yl)-1H-pyrrole-3-carboxamide]	* (* = 0 μM ≤ SC150 < 0.1 μM)	–
O=C(NCc1nc(-c2cc3c(NCC4CNC4)cccc3n2CC(F)(F)F)no1)C1CC1 [Compound 170B, N-{[3-(4-{[(432zetidine-3-yl)methyl]amino}-1-(2,2,2-trifluoroethyl)-1H-indol-2-yl)-1,2,4-oxadiazol-5-yl]methyl}cyclopropanecarboxamide]	* (* = 0 μM ≤ SC150 < 0.1 μM)	–
CN1CC[C@@H](Nc2cccc3c2cc(-c2noc(CNC(=O)[C@H]4C[C@H](C)C4)n2)n3CC(F)(F)F)[C@@H](F)C1 [Compound 212B, (1s,3r)-N-{[3-(4-{[(3S,4R)-3-fluoro-1-methylpiperidin-4-yl]amino}-1-(2,2,2-trifluoroethyl)-1H-indol-2-yl)-1,2,4-oxadiazol-5-yl]methyl}-3-methylcyclobutane-1-carboxamide]	* (* = 0 μM ≤ SC150 < 0.1 μM)	–
CN1CCC(n2ccc(C(=O)NCc3nc(-c4cc5c(N[C@@H]6CCN(C)C[C@@H]6F)cccc5n4CC(F)(F)F)no3)c2)C1 (some centres unmarked) [Compound 351B]	* (* = 0 μM ≤ SC150 < 0.1 μM)	–
COCC(C)(C)n1ccc(C(=O)NCc2nc(-c3cc4c(N[C@@H]5CCN(C)C[C@@H]5F)cccc4n3CC(F)(F)F)no2)n1 [Compound 547B, N-{[3-(4-{[(3S,4R)-3-fluoro-1-methylpiperidin-4-yl]amino}-1-(2,2,2-trifluoroethyl)-1H-indol-2-yl)-1,2,4-oxadiazol-5-yl]methyl}-1-(1-methoxy-2-methylpropan-2-yl)-1H-pyrazole-3-carboxamide]	* (* = 0 μM ≤ SC150 < 0.1 μM)	–
COCC1(n2ccc(C(=O)NCc3nc(-c4cc5c(N[C@H]6CCOC[C@H]6F)cccc5n4CC(F)(F)F)no3)c2)CC1 [Compound 496B, N-{[3-(4-{[(3S,4S)-3-fluorooxan-4-yl]amino}-1-(2,2,2-trifluoroethyl)-1H-indol-2-yl)-1,2,4-oxadiazol-5-yl]methyl}-1-[1-(methoxymethyl)cyclopropyl]-1H-pyrrole-3-carboxamide]	* (* = 0 μM ≤ SC150 < 0.1 μM)	–
CN1CC[C@@H](Nc2cccc3c2cc(-c2nc(CNC(=O)c4cncs4)no2)n3CC(F)(F)F)[C@@H](F)C1 (racemic) [Compound 279B, (+/−)-N-{[5-(4-{[(3R,4S)-3-fluoro-1-methylpiperidin-4-yl]amino}-1-(2,2,2-trifluoroethyl)-1H-indol-2-yl)-1,2,4-oxadiazol-3-yl]methyl}-1,3-thiazole-5-carboxamide]	* (* = 0 μM ≤ SC150 < 0.1 μM)	–
CN1CC[C@@H](Nc2cccc3c2cc(-c2noc(CNC(=O)c4coc(C(C)(C)C)n4)n2)n3CC(F)(F)F)[C@@H](F)C1 [Compound 440B, 2-tert-butyl-N-{[3-(4-{[(3S,4R)-3-fluoro-1-methylpiperidin-4-yl]amino}-1-(2,2,2-trifluoroethyl)-1H-indol-2-yl)-1,2,4-oxadiazol-5-yl]methyl}-1,3-oxazole-4-carboxamide]	* (* = 0 μM ≤ SC150 < 0.1 μM)	–
CN1CC[C@H](F)[C@H](Nc2cccc3c2cc(-c2noc(CNC(=O)c4ccn(C(C)(C)C)c4)n2)n3CC(F)(F)F)C1 (racemic) [Compound 389B, rac-1-tert-butyl-N-{[3-(4-{[(3R,4S)-4-fluoro-1-methylpiperidin-3-yl]amino}-1-(2,2,2-trifluoroethyl)-1H-indol-2-yl)-1,2,4-oxadiazol-5-yl]methyl}-1H-pyrrole-3-carboxamide]	* (* = 0 μM ≤ SC150 < 0.1 μM)	–
CN1CCC(Nc2cccc3c2cc(-c2nnc(CNC(=O)c4cccnc4)s2)n3CC(F)(F)F)CC1 [Compound 42B, N-[(5-{4-[(1-methylpiperidin-4-yl)amino]-1-(2,2,2-trifluoroethyl)-1H-indol-2-yl}-1,3,4-thiadiazol-2-yl)methyl]pyridine-3-carboxamide]	** (** = 0.1 μM ≤ SC150 < 0.5 μM)	–
CN1CC[C@@H](Nc2cccc3c2cc(-c2noc(CNC(=O)c4ccc(N5CCCC5)cc4)n2)n3CC(F)(F)F)[C@@H](F)C1 [Compound 243B, N-{[3-(4-{[(3S,4R)-3-fluoro-1-methylpiperidin-4-yl]amino}-1-(2,2,2-trifluoroethyl)-1H-indol-2-yl)-1,2,4-oxadiazol-5-yl]methyl}-4-(pyrrolidin-1-yl)benzamide]	* (* = 0 μM ≤ SC150 < 0.1 μM)	–
COCC(O)CN1CCC(Nc2cccc3c2cc(-c2ccc4c[nH]nc4c2)n3CC(F)(F)F)CC1 (centres unmarked) [Compound 48A, 1-(4-{[2-(2H-indazol-6-yl)-1-(2,2,2-trifluoroethyl)-1H-indol-4-yl]amino}piperidin-1-yl)-3-methoxypropan-2-ol]	–	+++ (+++ = 5 μM ≤ SC150 < 10 μM)
CN1CC[C@@H](Nc2cccc3c2cc(-c2noc(CNc4ccn[nH]4)n2)n3CC(F)(F)F)[C@@H](F)C1 [Compound 230B, N-[(3S,4R)-3-fluoro-1-methylpiperidin-4-yl]-2-(5-{[(1H-pyrazol-5-yl)amino]methyl}-1,2,4-oxadiazol-3-yl)-1-(2,2,2-trifluoroethyl)-1H-indol-4-amine]	* (* = 0 μM ≤ SC150 < 0.1 μM)	–
COCC(C)(C)n1cc(C(=O)NCc2nc(-c3cc4c(N[C@@H]5CCN(C(C)(C)C)C[C@@H]5F)cccc4n3CC(F)(F)F)no2)cn1 [Compound 412B, N-{[3-(4-{[(3S,4R)-1-tert-butyl-3-fluoropiperidin-4-yl]amino}-1-(2,2,2-trifluoroethyl)-1H-indol-2-yl)-1,2,4-oxadiazol-5-yl]methyl}-1-(1-methoxy-2-methylpropan-2-yl)-1H-pyrazole-4-carboxamide]	* (* = 0 μM ≤ SC150 < 0.1 μM)	–
